Data published in patent publication US20200030411A1, “Methods and Compositions for Inhibiting Skin Inflammation and Determining Cancer Susceptibility” (AGENCY FOR SCIENCE, TECHNOLOGY AND RESEARCH, priority 2016, published 2020).
Values belong to the compound of their own block, whether it stands above or below them. *: point of attachment. Cbz = O=C(OCc1ccccc1)*; CH2F = FC*

Tests used:
keratinocytes [1] = assay: Induction of skin inflammation markers in keratinocytes (Q-PCR); type: cell-based, human
Experimental: (§1) Human tissue RNA array was purchased from Clontech. cDNA synthesis was performed with iScript cDNA synthesis kit according to the manufacturer's instructions ([…]) with 1 μg of purified RNA in 20 μl. RT-PCR was performed using 1μl of 10× diluted cDNA using HotStart Taq polymerase (QIAGEN). Q-PCR was performed in triplicate wells using 1 μl of 10×diluted cDNA using SYBR Green Master Mix (ThermoFisher).

dermal fibroblasts = assay: Induction of inflammatory cytokines and growth factors in fibroblasts (Q-PCR); type: cell-based, human
Experimental: as §1

ASC-GFP = ASC-GFP oligomers, cross-linking and Western Blot; type: cell-based; settings: cross-linked ASC-GFP oligomers, Western Blot
Experimental: All harvested cell pellets were kept at −80° C. till use. For DSS crosslinking, cell pellets from a confluent well in 6-well plate were suspended in 200 μl of 1 mM DSS in PBS for 15 minutes at 37° C. with constant mixing. Crosslinked pellets were centrifuged at 20,000 RCF for 5 minutes. Protein complexes were solubilized in 1×Laemmli SDS-PAGE buffer for 10 minutes at 95° C. and centrifuged again at 20,000 RCF for 5 minutes. The supernatant was used for western blot analysis. Protein lysate was quantified using the Bradford assay and […] was used per well for SDS-PAGE. Proteins were transferred using TransBlot (Bio-rad) using the ‘mixed molecular weight’ setting (25V, 7 minutes). Western blotting was carried out with overnight incubation of primary antibodies diluted in 1×TBS with 1% Tween-20 and 3% non-fat milk at 4° C. All ELISA experiments were performed strictly according to the manufacturers' recommended protocols.

keratinocytes [2] = assay: Talabostat-induced pyroptosis in keratinocytes; type: cell-based, human
NLRP1 [3] = assay: NLRP1 oligomerization; type: cell-based, human
Experimental: Blue-Native PAGE was performed using the Novex® NativePAGE Bis-Tris gel system (ThermoFisher) according to the manufacturers' instructions with minor modifications. Briefly, 293Ts cells were transfected with various NLRP1 expression plasmids at a ratio of 1 μg plasmid per well in a standard 6-well plate using Lipofectamine 2000 reagent (ThermoFisher). Cells were harvested 48 hours post-transfection and lysed in Sample Prep buffer containing 1% digitonin, clarified by centrifugation at 20,000 RCF for 10 minutes and supplemented with Coomassie G-250 to a final concentration of 0.25%. 10 μl of protein lysate per well was using for BN-PAGE. Electrophoresis was performed with the ‘dark blue’ cathode buffer for ˜1 hr at 150 V constant voltage, followed by the ‘light blue’ buffer at 250V for ˜1.5 hours. The proteins were transferred onto a PVDF membrane using a Trans-Blot Turbo system at 25 V for 10 minutes and detected by standard western blot procedures without the recommended acetic acid fixing step. For 2D PAGE, the entire BN-PAGE gel lane was excised and cut into 8 slices. Each slice was eluted in an elution buffer containing 50 mM Tris-HCl, 150 mM NaCl and 0.1% SDS overnight at room temperature with constant mixing. The supernatant was concentrated the next day using an Amicon Ultra 0.5 mL filter (MWCO=30 kDa) (Merck Millipore) to […] and supplemented with […] 1×Laemmli buffer.

NLRP1 [4] = assay: ASC-GFP speck formation with Talabostat in the presence of NLRP1; type: cell-based, human
Experimental: 293T-ASC-GFP cells were seeded at ˜70% confluence on poly-lysine coated coverslips. N/TERT immortalized keratinocytes were seeded on uncoated coverslips. All cells were grown in growth media and allowed to adhere overnight. Coverslips were fixed with 4% paraformaldehyde in 1×PBS and permeablized with 0.5% Triton-X in 1×PBS. All primary antibodies were diluted in PBS with 1% BSA and 0.05% Triton-X. Primary antibody incubation was performed at 4° C. overnight with gentle mixing. Secondary antibody incubation was performed for 1 to 2 hours at room temperature. Coverslips were mounted with DAPI-containing Prolong Gold mounting media (ThermFisher).
A custom ImageJ workflow was used for the percentage calculation of ASC-GFP speck-containing cells. Briefly, the total cell number per image was counted in ImageJ using binary intensity thresholding of the DAPI images, a ‘watershed’ filter followed by the automatic ‘particle count’ algorithm, with a minimum cut-off radius of 50 pixels. ASC-GFP specks were counted in the same way using the GFP images, except no watershed filter was applied and the minimum radius was set at 10 pixels. For each sample, three fields were chosen at random and at least 100 cells were scored. […]

[5] = Clinical course of treated MSPC patients; type: in vivo, human; settings: patient MSPC-FR-1 III: 2
caspase 1 [6] = target: T1, caspase 1 (Homo sapiens, UniProt P29466); assay: Secretion of inflammasome-dependent cytokines by immortalized keratinocytes after doxycycline induction of NLRP1 mutants (ELISA); type: cell-based; set-up: endogenous in cells; host or cells: immortalized (N/TERT) keratinocytes with doxycycline-inducible NLRP1 mutants; settings: pre-treated 1 hour before doxycycline, media harvested 16 hours after doxycycline
T1 sequence (P29466 120-404): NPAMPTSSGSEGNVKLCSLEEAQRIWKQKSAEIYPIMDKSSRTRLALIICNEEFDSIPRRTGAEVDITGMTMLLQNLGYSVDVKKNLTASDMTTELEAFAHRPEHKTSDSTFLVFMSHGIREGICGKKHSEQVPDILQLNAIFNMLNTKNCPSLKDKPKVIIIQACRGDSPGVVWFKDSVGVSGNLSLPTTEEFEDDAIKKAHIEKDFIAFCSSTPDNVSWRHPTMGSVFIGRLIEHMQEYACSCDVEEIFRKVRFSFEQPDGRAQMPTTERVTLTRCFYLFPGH
Experimental: (§2) All 293T and derivative cell lines were cultured in complete high-glucose DMEM media (Life Technologies) supplemented with 10% FBS. THP-1 cells were cultured in RPMI-1640 media supplemented with 10% FBS. THP-1 differentiation was induced by incubation with 400 ng/ml phorbol myristoyl acetate for 48 hours. Primary keratinocytes and fibroblasts from healthy human skin were obtained from de-identified surplus surgical waste with fully informed consent and obtained with full ethical clearance through the IMB Skin Cell Bank. Primary keratinocytes from MSPC and FKLC patients were isolated from fresh skin punch biopsies and grown on mouse 3T3 feeder cells. Immortalized N/TERT-1 keratinocytes were cultured in KSFM media (Life Technologies) supplemented with […] CaCl2.
(§3) Protein lysate was quantified using the Bradford assay and […] was used per well for SDS-PAGE. Proteins were transferred using TransBlot (Bio-rad) using the ‘mixed molecular weight’ setting (25V, 7 minutes). Western blotting was carried out with overnight incubation of primary antibodies diluted in 1×TBS with 1% Tween-20 and 3% non-fat milk at 4° C. All ELISA experiments were performed strictly according to the manufacturers' recommended protocols.

caspase 1 [7] = target: T1, caspase 1; assay: IL-1b secretion by THP-1 derived macrophages after NLRP1 mutant induction; type: cell-based; set-up: endogenous in cells; host or cells: THP-1 derived macrophages with doxycycline-inducible NLRP1 mutants; settings: doxycycline-induced NLRP1 mutants
Experimental: as §2, §3

Compound: TNFa
- transcript levels of keratinocyte stress markers S100A9 and PI3 (keratinocytes [1]): increased transcript levels
- transcript levels of IL-6, IL-8 and FGF7 (KGF) (dermal fibroblasts; dermal fibroblasts): increased transcript levels
- EGF and HB-EGF response (dermal fibroblasts; fibroblasts, negative controls): not responsive

Compound: CC(C)[C@H](N)C(=O)N1CCC[C@H]1B(O)O [Talabostat, Val-boro-Pro]
- ASC-GFP oligomers (ASC-GFP): induces ASC-GFP oligomers
- dependence of Talabostat-induced pyroptosis on inflammasome components (keratinocytes [2]): NLRP1 and ASC-dependent
- conventional pyroptosis in keratinocytes (ASC, morphology) (keratinocytes [2]; ASC, morphology readout): induces conventional pyroptosis
- conventional pyroptosis in keratinocytes (IF) (keratinocytes [2]; IF readout): induces conventional pyroptosis
- conventional pyroptosis in keratinocytes (IL-1beta) (keratinocytes [2]; IL-1beta readout): induces conventional pyroptosis
- NLRP1 oligomerization (NLRP1 [3]): induces NLRP1 oligomerization
- ASC-GFP specks (NLRP1 [4]): induces ASC-GFP specks

Compound: COc1cc(C)c(/C=C/C(C)=C/C=C/C(C)=C/C(=O)O)c(C)c1C [Acitretin]
- adverse event leading to stop of treatment [5]: dry eye

- IL-1b secretion caused by NLRP1 mutant induction (caspase 1 [7]): could be blocked
Compound: Cbz-WEHD-CH2F
- increase of IL-1a, IL-1b and IL-18 released into the culture media (caspase 1 [6]): abrogated this increase
